pIC50: −log10 of the molar value. “And” between values parts separate entries of the source, which are not always exact repeats. Equal entries are not always repeated.
Columns and labels:
MCF-7 = type: cell-based, human; settings: MCF-7 (human breast adenocarcinoma), 72 h
HSC-3 = type: cell-based, human; settings: HSC-3 (human oral squamous cell carcinoma), 72 h
SCC-4 = type: cell-based, human; settings: SCC-4 (human oral squamous cell carcinoma), 72 h
PBMC = type: cell-based; settings: PBMC (human peripheral blood mononuclear cells, non-cancer), 72 h
[1] = system: multicellular spheroids formed from HepG2 cells; assay: 3D multicellular spheroid culture, alamar blue; type: cell-based, human; settings: HepG2 3D spheroids, 72 h
Procedure: HepG2 cells were cultivated in 3D multicellular spheroids. Briefly, 100 μL of cell solution (0.5 × 10^6 cells/mL) was added to a 96-well plate with a cell-repellent surface (Greiner Bio-One, Kremsmünster, Austria) and cultured in complete medium plus 3% Matrigel (BD Biosciences, San Jose, CA, USA). Spheroids with stable structures formed after three days. Then, the spheroids were exposed to a range of drug concentrations for 72 h. The negative control received the vehicle that was used for diluting the complex tested. In the end of the experiment, morphological changes were examined by light microscopy (Olympus BX41, Tokyo, Japan) using Image-Pro software (Media Cybernetics, Inc. Silver Spring, USA), and cell viability was quantified by alamar blue assay as described above.

HepG2 cells = assay: Gene expression analysis by qPCR array (TaqMan Array Human Molecular Mechanisms of Cancer); type: cell-based; settings: HepG2, 12 h; RCX 12 µM, DOX 2 µM
Procedure: HepG2 cells were plated in bottles for cell culture (7 × 10^4 cells/mL). […] The RNA was evaluated by fluorimetry using QuBit (Life Technologies; Camarillo, CA, USA). RNA reverse transcription was performed using a Superscript VILO™ Kit (Invitrogen Corporation; Waltham, MA, USA). A 96-well plate TaqMan® Array Human Molecular Mechanisms of Cancer (ID 4418806, Applied Biosystems^TM, Foster City, CA, USA) was used for the gene expression study by qPCR. The reactions were conducted in an ABI ViiA7 system (Applied Biosystems^TM; Foster City, CA, USA). The cycle conditions comprised 2 min at 50 °C, 20 s at 95 °C, then 40 cycles of 3 s at 95 °C and 30 s at 60 °C. The relative quantification (RQ) of mRNA expression was calculated by the 2^-ΔΔCT method[40] using Gene Expression Suite™ Software (Applied Biosystems^TM), and the cells treated with the negative control (0.2% DMSO) were used as a calibrator. The reactions were normalized by the geometric mean of the RQ of the reference genes GAPDH, 18S and HPRT1. All experiments were performed in DNase/RNase-free conditions.

AGP-01 = AGP-01 (human ascitic gastric adenocarcinoma), 72 h

For `COc1cc([O-])c(C(C)=O)c(OC)c1.F[P-](F)(F)(F)(F)F.[Ru+2].c1cnc2c(c1)ccc1cccnc12.c1cnc2c(c1)ccc1cccnc12` [RCX, cis-[Ru(phen)2(xant)](PF6)], the pIC50 (MCF-7) was 4.65, the pIC50 (HSC-3) was 5.11 and the pIC50 (SCC-4) was 5.28. For the same compound, the pIC50 (PBMC) was 5.34, the pIC50 [1] was 5.10 and the “RQ ABL1 gene expression” value (HepG2 cells) was 1.908. The “RQ AKT1 gene expression” value (HepG2 cells) was 1.685, the “RQ AKT2 gene expression” value (HepG2 cells) was 2.7 and 2.697 and the “RQ APC gene expression” value (HepG2 cells) was 1.106. For the same compound, the “RQ BAX gene expression” value (HepG2 cells) was 0.887, the “RQ BCAR1 gene expression” value (HepG2 cells) was 2.9 and 2.846 and the “RQ BCL2L1 gene expression” value (HepG2 cells) was 0.898. For the same compound, the “RQ BCL2L11 gene expression” value (HepG2 cells) was 9.8 and 9.786, the “RQ BCL2 gene expression” value (HepG2 cells) was 2.4 and 2.377 and the “RQ BID gene expression” value (HepG2 cells) was 1.477. The “RQ BRAF gene expression” value (HepG2 cells) was 2.3 and 2.296, the “RQ CASP8 gene expression” value (HepG2 cells) was 1.493 and the “RQ CCND1 gene expression” value (HepG2 cells) was 4.8 and 4.752. The “RQ CCND3 gene expression” value (HepG2 cells) was 2.4 and 2.397, the “RQ CCNE1 gene expression” value (HepG2 cells) was 0.674 and the “RQ CDC42 gene expression” value (HepG2 cells) was 4.2 and 4.147. The “RQ CDH1 gene expression” value (HepG2 cells) was 1.051, the “RQ CDK2 gene expression” value (HepG2 cells) was 1.251 and the “RQ CDK4 gene expression” value (HepG2 cells) was 2.7 and 2.737. The “RQ CDKN1A gene expression” value (HepG2 cells) was 0.628, the “RQ CDKN1B gene expression” value (HepG2 cells) was 0.5 and 0.543 and the “RQ CDKN2A gene expression” value (HepG2 cells) was 3.8 and 3.836. The “RQ CRK gene expression” value (HepG2 cells) was 6.2 and 6.172, the “RQ CTNNB1 gene expression” value (HepG2 cells) was 1.930 and the “RQ CYCS gene expression” value (HepG2 cells) was 1.927. The “RQ DVL1 gene expression” value (HepG2 cells) was 2.7 and 2.712, the “RQ E2F1 gene expression” value (HepG2 cells) was 7.1 and 7.081 and the “RQ EGFR gene expression” value (HepG2 cells) was 2.0 and 1.985. For the same compound, the “RQ ELK1 gene expression” value (HepG2 cells) was 5.2 and 5.179, the “RQ ERBB2 gene expression” value (HepG2 cells) was 2.2 and 2.186 and the “RQ FADD gene expression” value (HepG2 cells) was 1.854. The “RQ FAS gene expression” value (HepG2 cells) was 2.9 and 2.845, the “RQ FGF2 gene expression” value (HepG2 cells) was 5.5 and 5.503 and the “RQ FOS gene expression” value (HepG2 cells) was 1.472. For the same compound, the “RQ FYN gene expression” value (HepG2 cells) was 2.2 and 2.240, the “RQ FZD1 gene expression” value (HepG2 cells) was 4.8 and 4.807 and the “RQ GRB2 gene expression” value (HepG2 cells) was 0.855. For the same compound, the “RQ GSK3B gene expression” value (HepG2 cells) was 0.999, the “RQ HRAS gene expression” value (HepG2 cells) was 2.1 and 2.071 and the “RQ IGF1R gene expression” value (HepG2 cells) was 1.052. For the same compound, the “RQ ITGA2B gene expression” value (HepG2 cells) was 5.4 and 5.437, the “RQ ITGAV gene expression” value (HepG2 cells) was 1.126 and the “RQ ITGB1 gene expression” value (HepG2 cells) was 1.547. For the same compound, the “RQ ITGB3 gene expression” value (HepG2 cells) was 1.478, the “RQ JUN gene expression” value (HepG2 cells) was 4.5 and 4.475 and the “RQ KRAS gene expression” value (HepG2 cells) was 4.8 and 4.786. The “RQ MAP2K1 gene expression” value (HepG2 cells) was 2.6 and 2.591, the “RQ MAP3K5 gene expression” value (HepG2 cells) was 1.752 and the “RQ MAPK1 gene expression” value (HepG2 cells) was 2.1 and 2.124. The “RQ MAPK3 gene expression” value (HepG2 cells) was 1.762, the “RQ MAPK8 gene expression” value (HepG2 cells) was 1.293 and the “RQ MAPK14 gene expression” value (HepG2 cells) was 3.0 and 3.025. For the same compound, the “RQ MDM2 gene expression” value (HepG2 cells) was 3.2 and 3.153, the “RQ MYC gene expression” value (HepG2 cells) was 4.3 and 4.304 and the “RQ NFKB1 gene expression” value (HepG2 cells) was 2.2 and 2.156. The “RQ NFKB2 gene expression” value (HepG2 cells) was 3.6 and 3.621, the “RQ NFKBIA gene expression” value (HepG2 cells) was 1.342 and the “RQ NRAS gene expression” value (HepG2 cells) was 1.862. For the same compound, the “RQ PIK3CA gene expression” value (HepG2 cells) was 1.265, the “RQ PIK3R1 gene expression” value (HepG2 cells) was 1.408 and the “RQ PTEN gene expression” value (HepG2 cells) was 0.644. For the same compound, the “RQ PTK2B gene expression” value (HepG2 cells) was 0.803, the “RQ PTK2 gene expression” value (HepG2 cells) was 2.0 and 2.034 and the “RQ RAC1 gene expression” value (HepG2 cells) was 1.199. The “RQ RAF1 gene expression” value (HepG2 cells) was 4.7 and 4.645, the “RQ RB1 gene expression” value (HepG2 cells) was 0.795 and the “RQ RELA gene expression” value (HepG2 cells) was 2.4 and 2.403. The “RQ RHOA gene expression” value (HepG2 cells) was 1.541, the “RQ SHC1 gene expression” value (HepG2 cells) was 3.7 and 3.702 and the “RQ SMAD4 gene expression” value (HepG2 cells) was 3.6 and 3.549. The “RQ SOS1 gene expression” value (HepG2 cells) was 5.0 and 4.992, the “RQ SRC gene expression” value (HepG2 cells) was 1.833 and the “RQ TCF3 gene expression” value (HepG2 cells) was 3.2 and 3.166. For the same compound, the “RQ TGFB1 gene expression” value (HepG2 cells) was 1.267, the “RQ TGFBR1 gene expression” value (HepG2 cells) was 1.352 and the “RQ TGFBR2 gene expression” value (HepG2 cells) was 1.069. For the same compound, the “RQ TP53 gene expression” value (HepG2 cells) was 0.5 and 0.471, the “RQ VEGFA gene expression” value (HepG2 cells) was 3.8 and 3.759 and the pIC50 (AGP-01) was 5.28.

Reference: PMC5833756, “A novel ruthenium complex with xanthoxylin induces S-phase arrest and causes ERK1/2-mediated apoptosis in HepG2 cells through a p53-independent pathway” (Cell Death & Disease, 2018)
